Assay results published in patent US4459290A, “C-23-Modified derivatives of OMT, pharmaceutical compositions and method of use” (priority 1982, dated 1984).
≈ marks a conversion by molar mass, not a printed value. Like-named read-outs stand apart in the source and are kept apart here.

Key:
[1] = system: Staphylococcus aureus X400; experiment: MIC, standard agar-dilution assay (Table V); assay type: cell-based; details: Staphylococcus aureus, X400
Description: (§1) Especially noteworthy is the improved activity against gram-negative bacteria for several derivatives when compared to the activity of OMT. […] The MIC's in Tables V and VI were determined by standard agar-dilution assays. The MIC's in Table VII were obtained using a conventional broth-dilution microtiter test.

[2] = system: Staphylococcus epidermidis EPI2; experiment: MIC, standard agar-dilution assay (Table V); assay type: cell-based; details: Staphylococcus epidermidis; S. epidermidis EPI2; agar dilution; read-out: MIC
Description: as §1

[3] = system: Streptococcus Group D X66; experiment: MIC, standard agar-dilution assay (Table V); assay type: cell-based
Description: as §1

[4] = system: Staphylococcus epidermidis EPI1; experiment: MIC, standard agar-dilution assay (Table V); assay type: cell-based; details: Staphylococcus epidermidis; S. epidermidis EPI1; agar dilution; read-out: MIC
Description: as §1

[5] = system: Staphylococcus aureus S13E; experiment: MIC, standard agar-dilution assay (Table V); assay type: cell-based; details: Staphylococcus aureus, S13E
Description: as §1

[6] = system: Escherichia coli N10; experiment: MIC, standard agar-dilution assay (Table V); assay type: cell-based; details: Escherichia coli, N10
How it was run: (§2)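 Growth inhibition in liquid medium, in a routine microtiter broth-dilution series, gave the MIC against staphylococci and pasteurellae; the gram-negative enteric strain was tested by conventional agar dilution instead.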

[7] = system: Klebsiella pneumoniae KAE; experiment: MIC, standard agar-dilution assay (Table V); assay type: cell-based; details: Klebsiella pneumoniae
How it was run: as §2

[8] = system: Shigella sonnei N9; experiment: MIC, standard agar-dilution assay (Table V); assay type: cell-based
How it was run: as §2

[9] = system: Streptococcus Group 9960; experiment: MIC, standard agar-dilution assay (Table V); assay type: cell-based; details: GROUP9960
Description: as §1

[10] = system: Staphylococcus aureus X1.1; experiment: MIC, standard agar-dilution assay (Table V); assay type: cell-based; details: Staphylococcus aureus, X1.1
Description: as §1

[11] = system: Klebsiella pneumoniae X26; experiment: MIC, standard agar-dilution assay (Table V); assay type: cell-based; details: Klebsiella pneumoniae, X26
Description: as §1

[12] = system: Escherichia coli EC14; experiment: MIC, standard agar-dilution assay (Table V); assay type: cell-based; details: Escherichia coli
How it was run: as §2

[13] = system: Staphylococcus aureus V41; experiment: MIC, standard agar-dilution assay (Table V); assay type: cell-based; details: Staphylococcus aureus, V41
Description: as §1

[14] = system: Streptococcus pyogenes C203; experiment: ED50 in mice experimentally infected with S. pyogenes C203 (Table VIII); assay type: in vivo
Description: The C-23 modified derivatives of OMT of this invention have shown in vivo antimicrobial activity against experimental infections. When two doses of test compound were administered to mice experimentally infected with a gram-positive bacterium, S. pyogenes C203, the activity observed was measured as an ED50 value [effective dose in mg/kg to protect 50% of the test animals: see Warren Wick, et al., J. Bacteriol. 81, 233-235 (1961)].

[15] = system: Proteus inconstans PR33; experiment: MIC, standard agar-dilution assay (Table VI); assay type: cell-based; details: Providencia alcalifaciens
Description: as §1

[16] = system: Klebsiella pneumoniae X68; experiment: MIC, standard agar-dilution assay (Table VI); assay type: cell-based
Description: as §1

[17] = system: Salmonella typhi 1335; experiment: MIC, standard agar-dilution assay (Table VI); assay type: cell-based; details: Salmonella enterica
Description: as §1

[18] = system: Salmonella heidelberg X514; experiment: MIC, standard agar-dilution assay (Table VI); assay type: cell-based; details: Salmonella enterica
Description: as §1

[19] = system: Citrobacter freundii CF17; experiment: MIC, standard agar-dilution assay (Table VI); assay type: cell-based
Description: as §1

[20] = system: Enterobacter cloacae EB5; experiment: MIC, standard agar-dilution assay (Table VI); assay type: cell-based
Description: as §1

[21] = system: Pseudomonas aeruginosa Ps18; experiment: MIC, standard agar-dilution assay (Table VI); assay type: cell-based
Description: as §1

[22] = system: Proteus rettgeri PR7; experiment: MIC, standard agar-dilution assay (Table VI); assay type: cell-based; details: Providencia rettgeri; P. rettgeri PR7; agar dilution; read-out: MIC
Description: as §1

[23] = system: Pseudomonas aeruginosa X239; experiment: MIC, standard agar-dilution assay (Table VI); assay type: cell-based
Description: as §1

[24] = system: Enterobacter aerogenes C32; experiment: MIC, standard agar-dilution assay (Table VI); assay type: cell-based; details: Klebsiella aerogenes
Description: as §1

[25] = system: Pasteurella multocida 60A; experiment: MIC, broth-dilution microtiter test (Table VII); assay type: cell-based; details: Pasteurella multocida; P. multocida 60A, avian isolate; broth-dilution microtiter; read-out: MIC
How it was run: (§3)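 Each MIC derives from a dilution series, either on solid agar (Enterobacter aerogenes) or in liquid broth within microtiter plates (staphylococcal and Pasteurella strains).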

[26] = system: Pasteurella multocida 68C; experiment: MIC, broth-dilution microtiter test (Table VII); assay type: cell-based; details: Pasteurella multocida; P. multocida 68C; broth-dilution microtiter; read-out: MIC
How it was run: as §3

[27] = system: Pasteurella multocida 40G; experiment: MIC, broth-dilution microtiter test (Table VII); assay type: cell-based; details: Pasteurella multocida; P. multocida 40G; broth-dilution microtiter; read-out: MIC
How it was run: as §3

[28] = system: Mycoplasma gallisepticum; experiment: MIC, broth-dilution microtiter test (Table VII); assay type: cell-based; details: Mycoplasmoides gallisepticum
Description: as §1

[29] = system: Pasteurella hemolytica 41D; experiment: MIC, broth-dilution microtiter test (Table VII); assay type: cell-based; details: Pasteurella, P. hemolytica 41D, read-out: MIC
How it was run: as §3

[30] = system: Pasteurella hemolytica 22C; experiment: MIC, broth-dilution microtiter test (Table VII); assay type: cell-based; details: Pasteurella, P. hemolytica 22C, read-out: MIC
How it was run: as §3

[31] = system: Staphylococcus aureus; experiment: MIC, broth-dilution microtiter test (Table VII); assay type: cell-based; details: Staphylococcus aureus
How it was run: as §3

[32] = system: Pasteurella multocida 17E; experiment: MIC, broth-dilution microtiter test (Table VII); assay type: cell-based; details: Pasteurella multocida; P. multocida 17E, bovine isolate; broth-dilution microtiter; read-out: MIC
How it was run: as §3

[33] = system: Pasteurella hemolytica 23C; experiment: MIC, broth-dilution microtiter test (Table VII); assay type: cell-based; details: Pasteurella, P. hemolytica 23C, read-out: MIC
How it was run: as §3

[34] = system: Pasteurella multocida 22A; experiment: MIC, broth-dilution microtiter test (Table VII); assay type: cell-based; details: Pasteurella multocida
How it was run: as §3

[35] = system: Mycoplasma hyorhinis; experiment: MIC, broth-dilution microtiter test (Table VII); assay type: cell-based; details: M. hyorhinis; broth-dilution microtiter; read-out: MIC
Description: as §1

[36] = system: Streptococcus sp. 80; experiment: MIC, broth-dilution microtiter test (Table VII); assay type: cell-based
Description: as §1

[37] = system: Mycoplasma synoviae; experiment: MIC, broth-dilution microtiter test (Table VII); assay type: cell-based; details: Mycoplasmopsis synoviae; M. synoviae; broth-dilution microtiter; read-out: MIC
Description: as §1

[38] = C203, sc, mice, subcutaneous, doses given 1 and 4 hours postinfection, read-out: ED50, Subcutaneous

CCC1OC(=O)CC(O)C(C)C(OC2OC(C)C(O)C(N(C)C)C2O)C(CC=O)CC(C)C(=O)C=CC(C)=CC1CSc1nnc(C)s1 (stereo not shown) [Compound 3, 23-Deoxy-23-(5-methyl-1,3,4-thiadiazol-2-yl)thio-OMT]
MIC [1]: 0.25 µg/mL (≈ 0.351 µM)
MIC [2]: 0.25 µg/mL (≈ 0.351 µM)
MIC [3]: 0.25 µg/mL (≈ 0.351 µM)
MIC [4]: 0.125 µg/mL (≈ 0.176 µM)
MIC [5]: 0.25 µg/mL (≈ 0.351 µM)
MIC [6]: 64 µg/mL (≈ 89.9 µM)
MIC ([7]; K. pneumoniae KAE, agar dilution, read-out: MIC): > 128 µg/mL
MIC [8]: 64 µg/mL (≈ 89.9 µM)
MIC [9]: 0.25 µg/mL (≈ 0.351 µM)
MIC [10]: 0.25 µg/mL (≈ 0.351 µM)
MIC [11]: 4 µg/mL (≈ 5.62 µM)
MIC ([12]; E. coli EC14, agar dilution, read-out: MIC): 64 µg/mL (≈ 89.9 µM)
MIC [13]: 0.25 µg/mL (≈ 0.351 µM)
ED50 ([14]; C203, mice, oral, doses given 1 and 4 hours postinfection, read-out: ED50, Oral): 81 mg/kg
ED50 [14, 38]: 22.3 mg/kg
MIC ([15]; P. inconstans PR33, agar dilution, read-out: MIC): > 128 µg/mL
MIC ([16]; K. pneumoniae X68, agar dilution, read-out: MIC): > 128 µg/mL
MIC [17]: > 128 µg/mL
MIC ([18]; S. heidelberg X514, agar dilution, read-out: MIC): > 128 µg/mL
MIC ([19]; C. freundii CF17, agar dilution, read-out: MIC): > 128 µg/mL
MIC ([20]; E. cloacae EB5, agar dilution, read-out: MIC): > 128 µg/mL
MIC ([21]; P. aeruginosa Ps18, agar dilution, read-out: MIC): > 128 µg/mL
MIC [22]: 64 µg/mL (≈ 89.9 µM)
MIC ([23]; P. aeruginosa X239, agar dilution, read-out: MIC): > 128 µg/mL
MIC ([24]; E. aerogenes C32, agar dilution, read-out: MIC): > 128 µg/mL
MIC [25]: 6.25 µg/mL (≈ 8.78 µM)
MIC [26]: 6.25 µg/mL (≈ 8.78 µM)
MIC [27]: 1.56 µg/mL (≈ 2.19 µM)
MIC ([28]; M. gallisepticum, broth-dilution microtiter, read-out: MIC): 0.19 µg/mL (≈ 0.267 µM)
MIC [29]: 6.25 µg/mL (≈ 8.78 µM)
MIC [30]: 12.5 µg/mL (≈ 17.6 µM)
MIC ([31]; S. aureus, broth-dilution microtiter, read-out: MIC): 0.78 µg/mL (≈ 1.1 µM)
MIC [32]: 6.25 µg/mL (≈ 8.78 µM)
MIC [33]: 6.25 µg/mL (≈ 8.78 µM)
MIC ([34]; 22A): 3.12 µg/mL (≈ 4.38 µM)
MIC [35]: 6.25 µg/mL (≈ 8.78 µM)
MIC ([36]; Streptococcus sp. 80, broth-dilution microtiter, read-out: MIC): 0.39 µg/mL (≈ 0.548 µM)
MIC [37]: 0.39 µg/mL (≈ 0.548 µM)

CCC1OC(=O)CC(O)C(C)C(OC2OC(C)C(O)C(N(C)C)C2O)C(CC=O)CC(C)C(=O)C=CC(C)=CC1CSc1nnnn1C (stereo not shown) [Compound 5, 23-Deoxy-23-(1-methyltetrazol-5-yl)thio-OMT]
MIC [1]: 0.5 µg/mL (≈ 0.719 µM)
MIC [2]: 0.5 µg/mL (≈ 0.719 µM)
MIC ([3]; Streptococcus Group D X66, agar dilution, read-out: MIC): 0.5 µg/mL (≈ 0.719 µM)
MIC [4]: 0.25 µg/mL (≈ 0.359 µM)
MIC [5]: 0.5 µg/mL (≈ 0.719 µM)
MIC [6]: > 128 µg/mL
MIC [7]: > 128 µg/mL
MIC [8]: 64 µg/mL (≈ 92 µM)
MIC ([9]; Streptococcus Group 9960, agar dilution, read-out: MIC): 0.5 µg/mL (≈ 0.719 µM)
MIC [10]: 0.5 µg/mL (≈ 0.719 µM)
MIC [11]: 4 µg/mL (≈ 5.75 µM)
MIC ([12]; EC14): 64 µg/mL (≈ 92 µM)
MIC [13]: 0.5 µg/mL (≈ 0.719 µM)
ED50 ([14]; C203, po, read-out: ED50, Oral): > 100 mg/kg
ED50 [14, 38]: 13.7 mg/kg
MIC ([15]; PR33): > 128 µg/mL
MIC ([16]; X68): > 128 µg/mL
MIC [17]: > 128 µg/mL
MIC ([18]; X514): > 128 µg/mL
MIC ([19]; CF17): > 128 µg/mL
MIC ([20]; EB5): > 128 µg/mL
MIC ([21]; PS18): > 128 µg/mL
MIC [22]: 64 µg/mL (≈ 92 µM)
MIC ([23]; X239): > 128 µg/mL
MIC ([24]; C32): > 128 µg/mL
MIC [25]: 6.25 µg/mL (≈ 8.98 µM)
MIC [26]: 6.25 µg/mL (≈ 8.98 µM)
MIC [27]: 3.12 µg/mL (≈ 4.48 µM)
MIC [28]: 1.56 µg/mL (≈ 2.24 µM)
MIC [29]: 12.5 µg/mL (≈ 18 µM)
MIC [30]: 12.5 µg/mL (≈ 18 µM)
MIC [31]: 1.56 µg/mL (≈ 2.24 µM)
MIC [32]: 6.25 µg/mL (≈ 8.98 µM)
MIC [33]: 12.5 µg/mL (≈ 18 µM)
MIC ([34]; P. multocida 22A, broth-dilution microtiter, read-out: MIC): 6.25 µg/mL (≈ 8.98 µM)
MIC [35]: 6.25 µg/mL (≈ 8.98 µM)
MIC ([36]; Streptococcus, SP.80): 1.56 µg/mL (≈ 2.24 µM)
MIC [37]: 0.78 µg/mL (≈ 1.12 µM)
